{"source": "patent US8637312B2", "about": "“Mammalian culture media with polyamine and iron” (Cellca GmbH, priority 2008, dated 2014)", "key": {"[1]": {"test_system": "CHO DG44 host cell line", "experiment": "High cell density fed-batch culture of antibody producing CHO clone, cell growth", "type": "cell-based, Chinese hamster", "conditions": "for effect of spermine and iron together on cell growth: Example 1, FIG. 1, both at high concentration, feed media polyamine and iron free; for requirement for optimal cell growth: Example 6, FIG. 6, spermine with iron (III) citrate, iron (III) citrate supplemented at day 6 to 400 mg/l", "from_the_text": "(§1) For all experiments a CHO DG44 host cell line (Urlaub and Chasin, Proc. Natl. Acad. Sci. USA, 1980, 77: 4216) was used. This host cell line was transfected with a vector carrying the gene of an IgG antibody. Transfectants were amplified using MTX in culture medium. An antibody producing clone was isolated and this clone was then used for all experiments.\n(§2) Stock culture cells were kept in a shake flask or in a spinner flask. The stock culture was split into fresh culture medium every two or three days. That means, a small amount of cell culture was used as inoculum and transferred into a new flask and supplemented with fresh culture medium. Cells were cultured at 37° C. in CO2 atmosphere in an incubator. In this way cells were cultured in several passages. One passage is defined as a culture duration of 2-4 days. At different time points inoculum cells were taken from the stock culture and experiments were performed in various scales, for examples in 6-well plates, shake flasks, T-flasks, spinner flasks and bioreactors.\nA basal medium as follows (in the following also termed proprietary culture medium) was used for cultivation of cells in all steps, e.g. in the stock culture, in the culture expansion step and in the production step. The basal medium contains all necessary substances for cell growth, cell viability and cellular productivity. The basal medium contains glucose at 1.0-6.0 g/l, NaCl 2.8-6.2 g/l, KCl 273-945 mg/l, CaCl2 48-290 mg/l, MgCl2 42-330 mg/l, NaH2PO4 56-1130 mg/l, Arginine 56-930 mg/l, Asparagine 44-900 mg/l, Aspartic acid 26-445 mg/l, Cysteine 35-270 mg/l, Glutamic acid 44-900 mg/, Glutamine 44-900 mg/l, Glycine 18-180 mg/l, Histidine 42-670 mg/l, Isoleucine 54-877 mg/l, Leucine 59-1250 mg/l, Lysine 73-1120 mg/l, Methionine 9-454 mg/l, Phenylalanine 35-677 mg/l, Proline 17-828 mg/l, Serine 26-1339 mg/l, Threonine 24-989 mg/l, Tryptophane 9-441 mg/l, Tyrosine 55-565 mg/l, Valine 52-787 mg/l, NaHCO3 2,4 g/l. The basal medium further comprises fatty acids and nucleotides. In all batch and fed-batch experiments the same proprietary culture medium and proprietary feed medium were used, unless otherwise stated. The feed medium used in fed-batch experiments (in the following also termed “proprietary feed medium”) has all necessary substances for cell growth, cell viability and cellular productivity, in particular salts, trace elements, carbohydrates, amino acids, fatty acids, pH regulator, nucleotides. Even though here a rich feed medium is used containing above mentioned substances, feed media must not comprise all of these components. Feed media consisting of one or more of above mentioned substances are suitable also. Both basal medium and feed medium are serum free, protein free, peptone free and peptide free. However, supplementation of media with one or more of above mentioned additives is possible. Thus, both media are chemically defined, consisting of only single, fully defined chemicals.\nExperiments were performed either in batch or in fed-batch modus. If an experiment was designed for fed-batch modus, it was started by inoculating the flask with stock culture cells in the production medium (culture medium). Culture flasks were inoculated with an inoculation cell density of 2 to 4×10^5 viable cells per millilitre. Cells were cultured for 1 to 4 days. The culture was supplemented thereafter with a feed medium for first time. Feeding was done batch wise every 1 to 3 days. Feeding the culture with feed medium was performed batch wise (bolus addition). Feeding of culture can also be done continuously, especially in bioreactors. In fed-batch experiments two different feed media were used. However, it is possible to use one or more than two different feed media. The culture was incubated as long as the cell viability was greater than 50%. Thus, culture duration was approximately 10 to 18 days. Every day samples were taken from cultures and analytical processes were done, such as cell count and metabolite measurements. […]"}, "[2]": {"test_system": "CHO DG44 host cell line", "experiment": "Batch culture of antibody producing CHO clone, cell growth", "type": "cell-based, Chinese hamster", "conditions": "for effect of spermine and iron together on cell concentration: Example 5, FIG. 5, spermine with iron (III) nitrate nonahydrate, both at high concentration", "from_the_text": "as §1, §2\nA basal medium as follows (in the following also termed proprietary culture medium) was used for cultivation of cells in all steps, e.g. in the stock culture, in the culture expansion step and in the production step. The basal medium contains all necessary substances for cell growth, cell viability and cellular productivity. The basal medium contains glucose at 1.0-6.0 g/l, NaCl 2.8-6.2 g/l, KCl 273-945 mg/l, CaCl2 48-290 mg/l, MgCl2 42-330 mg/l, NaH2PO4 56-1130 mg/l, Arginine 56-930 mg/l, Asparagine 44-900 mg/l, Aspartic acid 26-445 mg/l, Cysteine 35-270 mg/l, Glutamic acid 44-900 mg/, Glutamine 44-900 mg/l, Glycine 18-180 mg/l, Histidine 42-670 mg/l, Isoleucine 54-877 mg/l, Leucine 59-1250 mg/l, Lysine 73-1120 mg/l, Methionine 9-454 mg/l, Phenylalanine 35-677 mg/l, Proline 17-828 mg/l, Serine 26-1339 mg/l, Threonine 24-989 mg/l, Tryptophane 9-441 mg/l, Tyrosine 55-565 mg/l, Valine 52-787 mg/l, NaHCO3 2,4 g/l. The basal medium further comprises fatty acids and nucleotides. In all batch and fed-batch experiments the same proprietary culture medium and proprietary feed medium were used, unless otherwise stated. The feed medium used in fed-batch experiments (in the following also termed “proprietary feed medium”) has all necessary substances for cell growth, cell viability and cellular productivity, in particular salts, trace elements, carbohydrates, amino acids, fatty acids, pH regulator, nucleotides. Even though here a rich feed medium is used containing above mentioned substances, feed media must not comprise all of these components. Feed media consisting of one or more of above mentioned substances are suitable also. Both basal medium and feed medium are serum free, protein free, peptone free and peptide free. […]"}, "[3]": {"test_system": "BHK (baby hamster kidney) cells", "conditions": "adherent growing BHK cells, serum containing medium; Brunton et al. 1991; cited from earlier work"}, "[4]": {"test_system": "CHO (Chinese hamster ovary) cells", "conditions": "10 μM ferric iron plus spermine 0 to 100 μM, serum containing medium; Gaboriau et al. 2004; cited from earlier work"}, "[5]": {"conditions": "oligopeptide-free medium; WO 2007/077217; cited from earlier work"}, "[6]": {"test_system": "rat hepatoma cells", "conditions": "100 μM in culture medium; Itoh et al. 1994; cited from earlier work"}, "[7]": {"conditions": "Example 8, FIG. 8, in the presence of spermine"}}}
{"compound": "NCCCNCCCCNCCCN", "note": "[spermine]", "values": [{"measurement": "effect of spermine and iron together on cell growth", "setting": "[1]", "value": "synergistic effect"}, {"measurement": "cell growth with increasing spermine concentration", "setting": "[1]; Example 3, FIG. 3, 100 mg/l iron (III) pyrophosphate hydrate in medium, 800 mg/l in feed", "value": "grow better"}, {"measurement": "requirement for optimal cell growth", "setting": "[1]", "value": "required"}, {"measurement": "effect of spermine on cell growth", "setting": "[1]; Example 7, FIG. 7, iron (III) citrate as iron source, feed 3200 mg/l iron (III) citrate", "value": "positive effect"}, {"measurement": "effect of spermine on cell growth", "setting": "[1]; Example 8, FIG. 8, iron (III) phosphate as iron source, feed 800 mg/l iron (III) phosphate", "value": "positive effect"}, {"measurement": "effect of spermine and iron together on cell concentration", "setting": "[2]", "value": "synergistic effects"}, {"measurement": "toxicity to cells", "setting": "[3]", "value": "toxic"}, {"measurement": "number of viable cells", "setting": "[4]", "value": "decreases the number of viable cells in a dose-dependent manner"}, {"measurement": "cellular productivity on increasing concentration above 2 mg/l", "setting": "[5]", "value": "does not significantly increase"}]}
{"compound": "iron dextran", "values": [{"measurement": "effect of high iron concentration on cell growth", "setting": "[1]; Example 9, FIG. 9, 40 mg/l spermine, iron dextran fed at day 6 to 250 mg/l", "value": "promotes cell growth"}]}
{"compound": "NCCCCN", "note": "[putrescine]", "values": [{"measurement": "efficiency among amines in promoting cell specific productivity", "setting": "[5]", "value": "most efficient amine"}]}
{"compound": "O.O.O.O.O.O.O.O.O.O=[N+]([O-])[O-].O=[N+]([O-])[O-].O=[N+]([O-])[O-].[Fe+3]", "note": "[iron (III) nitrate nonahydrate]", "values": [{"measurement": "effect of spermine and iron together on cell concentration", "setting": "[2]", "value": "synergistic effects"}]}
{"compound": "NCCCCNCCCN", "note": "[spermidine]", "values": [{"measurement": "cell concentration reached", "setting": "[2]; Example 2, FIG. 2, 100 mg/l iron (III) pyrophosphate hydrate, with versus without spermidine", "value": "higher concentration"}, {"measurement": "toxicity of spermidine", "setting": "[2]; Example 2, FIG. 2, tested high concentrations, 100 mg/l iron (III) pyrophosphate hydrate", "value": "not visible"}]}
{"compound": "iron", "values": [{"measurement": "need of iron for cell growth", "setting": "[1]; Example 1, FIG. 1", "value": "essential"}, {"measurement": "effect of spermine and iron together on cell growth", "setting": "[1]", "value": "synergistic effect"}]}
{"compound": "[Fe+3]", "note": "[ferric (Fe^3+) iron]", "values": [{"measurement": "mitochondrial DNA damage", "setting": "[6]", "value": "damaged"}]}
{"compound": "O=P([O-])([O-])[O-].[Fe+3]", "note": "[iron (III) phosphate]", "values": [{"measurement": "effect of high iron concentration on cell growth", "setting": "[1]; [7]", "value": "promotes cell growth"}, {"measurement": "toxicity of high iron concentration to the cells", "setting": "[1]; [7]", "value": "not toxic"}]}
{"compound": "O=C([O-])CC(O)(CC(=O)[O-])C(=O)[O-].[Fe+3]", "note": "[iron (III) citrate]", "values": [{"measurement": "requirement for optimal cell growth", "setting": "[1]", "value": "required"}]}
{"compound": "[Fe+2]", "note": "[ferrous (Fe^2+)]", "values": [{"measurement": "mitochondrial DNA damage", "setting": "[6]", "value": "damaged"}]}
